US20260035339A1, “TETRAHYDRONAPHTHALENE DERIVATIVE” (ATRANSEN PHARMA LTD., priority 2022, published 2026)

How the values were obtained:
[1] = biological target: T1, human LAT1 (Homo sapiens, UniProt Q01650); assay: Leucine uptake persistence inhibitory effect after compound removal in human-LAT1 highly expressing cell line; assay type: cell-based; conditions: 20 μM compound for 30 minutes, removed, uptake measured 30 minutes later
Procedure: The uptake of [^14C]L-leucine remaining after the compound of the present invention was caused to act in advance and removed in the human-LAT1 highly expressing cell line was examined. In the same manner as in the uptake inhibition test, the cell line was seeded in a 24-well plate, and an MEM (Minimum Essential Medium) medium containing 20 μM of the compound (racemic form) was added to the wells and allowed to act for 30 minutes. An MEM medium containing no compound was used as a control. After the compound was caused to act, the cells were washed 3 times with the MEM medium and cultured in the MEM medium for an additional 30 minutes. Thereafter, washing was performed 3 times with Na^+Free-HBSS, and 1 μM of [^14C]L-leucine dissolved in Na^+Free-HBSS was taken up for 1 minute. The cells were washed 3 times with ice-cooled Na^+Free-HBSS, and the amount of [^14C]L-leucine taken up in the cells was determined with a liquid scintillator. In the same manner as in other tests, the amount of protein in the cell fluid was measured, and the uptake amount of [^14C]L-leucine per 1 mg of protein in the cell fluid per minute was determined.

[2] = biological target: T1, human LAT1; assay: [14C]L-leucine uptake inhibition test using human-LAT1 stably expressing HEK293 cell line; assay type: cell-based; set-up: having full-length cDNA of human LAT1 or LAT2 inserted under a promoter of CMV; expressed in transfected cells; key to Assay Data: degree of [14C]L-leucine uptake inhibition compared with BCH: a test compound having a higher inhibitory effect than BCH is denoted by A; a test compound having the same inhibitory effect as BCH is denoted by B; a test compound having a lower inhibitory effect than BCH is denoted by C; conditions: for Assay Data: degree of [14C]L-leucine uptake inhibition compared with BCH: compound (racemic form) and BCH at 0.1, 1.0, 10 μM, 1 μM [14C]L-leucine, 1 minute, Na+-free HBSS; for LAT1 inhibitory effect, compounds singled out (in words): same test as Table 1
Source text: HEK293 cells stably expressing human LAT1 and LAT2 were produced, respectively.
A shuttle vector DNA (LAT1: pcDNA3.1(+) -hLAT1, LAT2: pcDNA3.1(+) -hLAT2; expression vector pcDNA3.1 (+) was produced by Invitrogen Corp.) having ampicillin and neomycin resistance markers and having full-length cDNA of human LAT1 or LAT2 inserted under a promoter of CMV (cytomegalovirus) was constructed. This vector was transfected into the HEK293 cells by a method using Lipofectamine (registered trademark) 2000 (Invitrogen Corp.) according to the manufacturer's instructions. Thereafter, stably expressing cell clones of transgene were selected by a limiting dilution method in the presence of 0.9 mg/mL of Geneticin (registered trademark), and among the obtained cell clones, cell clones having a high uptake of [^14C]L-leucine and maintaining stable expression even after 10 passages were obtained. These cells were used for evaluating affinity and selectivity for LAT1 and LAT2.
1-1. It has been confirmed that LAT1 is responsible for L-leucine uptake in the absence of sodium ions in the human-LAT1 stably expressing HEK293 cell line. The human-LAT1 stably expressing HEK293 cell line was seeded in a 24-well plate at 1×10^5 Cell/Well, and the [^14C]L-leucine uptake inhibition test using the compound was performed after 48 hours. After the medium was removed and the cells were washed with Hank's balanced salt solution (Na^+-free HBSS) not containing sodium ions, the cells were cultured in Na^+-free HBSS for 10 minutes. Thereafter, 1 μM of [^14C]L-leucine was taken up in Na^+-free HBSS in the presence of a test compound (0.1, 1.0, 10, 0 μM in each case), which is a racemic form, for 1 minute, and then the cells were washed three times with ice-cooled Na^+-free HBSS. To the well, 500 μL of 1 M NaOH was added, and after 30 minutes, the cells were lysed, and the cell lysate was collected. The amount of [^14C]L-leucine in the cell lysate was determined using a liquid scintillator. The amount of protein in the cell lysate was measured using BCA Assay Kit (Thermofisher Scientific), and the uptake amount of [^14C]L-leucine per 1 mg of protein in the cell per minute was calculated.
The degree of LAT1 inhibition of the compound obtained in the present invention was compared with BCH (BCH, 2-aminobicyclo-(2,2,1)-heptane-2-carboxylic acid), which is an existing LAT1 inhibitor. In the [^14C]L-leucine uptake inhibition test described above, the degrees of inhibition of [^14C]L-leucine uptake inhibition using the compound (racemic form) obtained in Examples and BCH (0.1, 1.0, 10, 0 μM for both) were compared. […] In the table, a test compound having a higher inhibitory effect than BCH is denoted by A, a test compound having the same inhibitory effect as BCH is denoted by B, and a test compound having a lower inhibitory effect than BCH is denoted by C.

[3] = system: Mouse triple negative breast cancer cells 4T1 and mouse colorectal cancer cells CT26; assay: BNCT-enhancing effect using mouse allograft tumor model; assay type: in vivo, BALB/c mice; conditions: neutron rays 5 MW for 30 minutes
Procedure: Mouse triple negative breast cancer cells 4T1 and mouse colorectal cancer cells CT26 were plate-cultured and then transplanted subcutaneously into the lower limbs of BALB/c mice. After 1 week, 400 mg/kg of L-[10B]BPA or a solvent as a control was intravenously administered through the tail vein. In Group 1, the compound of Example 1-45 was administered intravenously at a dose of 25 mg/kg after 1 hour and 1.5 hours from the administration of L-[10B]BPA. In Group 2, the solvent was administered instead of L-[10B]BPA, and after 1 hour and 1.5 hours, the compound of Example 1-45 obtained in the present invention was administered intravenously at a dose of 25 mg/kg. In Group 3, the solvent was administered intravenously instead of the compound of Example 1-45 after 1 hour and 1.5 hours from the administration of L-[10B]BPA. For Groups 1, 2, and 3, the lower limbs were irradiated with neutron rays under anesthesia after 2.5 hours from L-[10B]BPA administration or solvent administration as the control (5 MW for 30 minutes). The tumors were excised after 11 days from irradiation and the volumes thereof were compared.

[4] = system: Mouse colorectal cancer-derived CT26 cells; assay: Cell proliferation inhibitory effect using mouse colorectal cancer cells (CCK-8 assay); assay type: cell-based; conditions: 72 hours compound treatment, read-out: Evaluation of IC50 (proliferation inhibition rate of 50%)
Procedure: Mouse colorectal cancer-derived CT26 cells were adjusted to […], seeded in a 96-well plate at 1000 cells/well, and cultured in a 10% fetal bovine serum-added RPMI 1640 medium at 5% CO2 and 37° C. The culture medium was changed 24 hours after the start of the culture, and the medium containing the compound of Example was replaced to examine the action of the compound on cell proliferation. As the compound, a concentration of 0.01, 0.03, 0.1, 0.3, 1, 3, 10, or 30 μM was used. As a control, the cells were cultured in a medium containing no compound. The number of cells was evaluated by CCK-8 assay (Cell Counting Kit-8, DOJINDO LABORATORIES) 72 hours after the start of the compound treatment, and the compound concentration (IC50 value) giving a proliferation inhibition rate of 50% as compared with the control was calculated.

[5] = system: Human breast cancer cells MCF7; assay: BNCT-enhancing effect by L-BPA confinement using cultured cells (colony formation after neutron irradiation); assay type: cell-based; conditions: MCF7 loaded with 100 μM L-[10B]BPA, not treated with Example 1-1; neutron rays 5 MW for 4 minutes
Procedure: Human breast cancer cells MCF7 were plate-cultured in an RPMI medium for 48 hours, then replaced with an RPMI medium containing 100 μM of L-[10B]BPA, and cultured for 15 minutes to allow the L-[10B]BPA to be taken up in the cells. After washing with HBSS, the cells were cultured in an RPMI medium for 60 minutes, and after further washing with HBSS, the cells were peeled off and stored in HBSS at room temperature for 1.5 hours ((−) in FIG. 3A). L-BPA was taken up in the cells, washed with HBSS and then cultured in an RPMI medium containing the compound of Example 1-1 (10 μM) obtained in the present invention for 60 minutes, and after further washing with HBSS, the cells were peeled off and stored in HBSS at room temperature for 1.5 hours ((+) in FIG. 3A). The cells were cultured in an RPMI medium containing no L-[10B]BPA for 15 minutes, and after washing with HBSS, the cells were peeled off and stored in HBSS at room temperature for 1.5 hours ((No BPA Hot control) in FIG. 3A). These three cell samples were irradiated with neutron rays (5 MW for 4 minutes). After irradiation, in order to measure viable cells, the cells were plate-cultured and the number of colonies generated after 2 weeks was measured. The number of viable cells was evaluated as surviving fraction (%) (FIG. 3A).

T1 sequence (Q01650 whole entry): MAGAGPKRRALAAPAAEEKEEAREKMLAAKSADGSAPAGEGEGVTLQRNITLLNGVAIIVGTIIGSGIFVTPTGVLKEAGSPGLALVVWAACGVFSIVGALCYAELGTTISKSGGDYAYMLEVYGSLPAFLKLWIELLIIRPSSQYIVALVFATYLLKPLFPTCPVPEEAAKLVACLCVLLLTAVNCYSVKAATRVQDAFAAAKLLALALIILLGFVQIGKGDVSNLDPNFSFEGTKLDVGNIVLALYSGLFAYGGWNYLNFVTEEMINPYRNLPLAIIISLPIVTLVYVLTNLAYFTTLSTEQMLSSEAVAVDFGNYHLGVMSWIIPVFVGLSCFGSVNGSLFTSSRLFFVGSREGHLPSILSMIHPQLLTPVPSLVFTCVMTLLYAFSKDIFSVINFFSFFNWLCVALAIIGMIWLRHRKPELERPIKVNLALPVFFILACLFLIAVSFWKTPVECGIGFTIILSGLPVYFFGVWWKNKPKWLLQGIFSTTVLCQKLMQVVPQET
T1 sequence (P08195 102-630 partner): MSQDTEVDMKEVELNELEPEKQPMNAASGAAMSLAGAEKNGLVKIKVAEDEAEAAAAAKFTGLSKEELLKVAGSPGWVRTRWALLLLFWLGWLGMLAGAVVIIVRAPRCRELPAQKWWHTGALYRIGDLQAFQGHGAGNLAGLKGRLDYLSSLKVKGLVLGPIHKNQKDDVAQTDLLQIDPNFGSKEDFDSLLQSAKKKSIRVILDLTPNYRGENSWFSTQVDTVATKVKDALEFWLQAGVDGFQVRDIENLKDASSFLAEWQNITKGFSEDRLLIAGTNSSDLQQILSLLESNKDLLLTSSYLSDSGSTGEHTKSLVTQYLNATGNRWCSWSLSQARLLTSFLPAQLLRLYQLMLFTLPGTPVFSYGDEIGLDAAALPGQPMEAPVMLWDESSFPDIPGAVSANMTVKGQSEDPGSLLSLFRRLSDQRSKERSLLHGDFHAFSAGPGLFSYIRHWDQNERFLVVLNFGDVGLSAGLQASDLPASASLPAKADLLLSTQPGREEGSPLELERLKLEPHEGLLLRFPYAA

| Structure (SMILES) | sustained LAT1 inhibitory effect as compared with Example 1-1 [1] | Assay Data: degree of [14C]L-leucine uptake inhibition compared with BCH [2] | LAT1 inhibitory effect, compounds singled out (in words) [2] | antitumor effect by neutron irradiation (tumor volume 11 days after irradiation) ([3]; Group 1: 400 mg/kg L-[10B]BPA i.v., then compound 25 mg/kg i.v. after 1 and 1.5 hours) | IC50 [4] [nM] | cell death caused by neutron irradiation, L-[10B]BPA without compound treatment [5] | BNCT effect of L-[10B]BPA without compound (tumor volume 11 days after irradiation) ([3]; Group 3: 400 mg/kg L-[10B]BPA i.v., solvent instead of Example 1-45) |
| --- | --- | --- | --- | --- | --- | --- | --- |
| Cl.NC1(C(=O)O)CCc2ccc(Oc3ccccc3-c3cccc(F)c3F)cc2C1 (stereo not drawn) [Example 1-45, 2-Carboxy-7-((2′,3′-difluoro-[1,1′-biphenyl]-2-yl)oxy)-1,2,3,4-tetrahydronaphthalene-2-aminium chloride] | more remarkable effect | A | particularly remarkable effects | large antitumor effect | ≤ 900 | – | – |
| Cl.NC1(C(=O)O)CCc2ccc(Oc3ccccc3-c3cccc(Cl)c3F)cc2C1 (stereo not drawn) [Example 1-54, 2-carboxy-7-((3′-Chloro-2′-fluoro-[1,1′-biphenyl]-2-yl)oxy)-1,2,3,4-tetrahydronaphthalene-2-aminium chloride] | more remarkable effect | A | particularly remarkable effects | – | ≤ 900 | – | – |
| Cc1cccc(-c2ccccc2Oc2ccc3c(c2)CC(N)(C(=O)O)CC3)c1F.Cl (stereo not drawn) [Example 1-55, 2-Carboxy-7-((2′-fluoro-3′-methyl-[1,1′-biphenyl]-2-yl)oxy)-1,2,3,4-tetrahydronaphthalene-2-aminium chloride] | more remarkable effect | A | particularly remarkable effects | – | ≤ 900 | – | – |
| Cc1cccc(-c2ccccc2Oc2ccc3c(c2)CC(N)(C(=O)O)CC3)c1Cl.Cl (stereo not drawn) [Example 1-57, 2-carboxy-7-((2′-Chloro-3′-methyl-[1,1′-biphenyl]-2-yl)oxy)-1,2,3,4-tetrahydronaphthalene-2-aminium chloride] | more remarkable effect | A | particularly remarkable effects | – | ≤ 900 | – | – |
| Cl.NC1(C(=O)O)CCc2ccc(Oc3ccccc3-c3ccc(F)c(F)c3F)cc2C1 (stereo not drawn) [Example 1-58, 2-carboxy-7-((2′,3′,4′-trifluoro-[1,1′-biphenyl]-2-yl)oxy)-1,2,3,4-tetrahydronaphthalene-2-aminium chloride] | more remarkable effect | A | particularly remarkable effects | – | ≤ 900 | – | – |
| Cl.NC1(C(=O)O)CCc2ccc(Oc3ccccc3-c3ccc(F)cc3F)cc2C1 (stereo not drawn) [Example 1-59, 2-Carboxy-7-((2′,4′-difluoro-[1,1′-biphenyl]-2-yl)oxy)-1,2,3,4-tetrahydronaphthalene-2-aminium chloride] | more remarkable effect | A | – | – | ≤ 900 | – | – |
| C=Cc1cccc(-c2ccccc2Oc2ccc3c(c2)CC(N)(C(=O)O)CC3)c1.Cl (stereo not drawn) [Example 1-62, 2-carboxy-7-((3′-vinyl-[1,1′-biphenyl]-2-yl)oxy)-1,2,3,4-tetrahydronaphthalene-2-aminium chloride] | more remarkable effect | A | – | – | ≤ 900 | – | – |
| Cl.NC1(C(=O)O)CCc2ccc(Oc3ccccc3-c3cc(F)cc(F)c3F)cc2C1 (stereo not drawn) [Example 1-63, 2-carboxy-7-((2′,3′,5′-trifluoro-[1,1′-biphenyl]-2-yl)oxy)-1,2,3,4-tetrahydronaphthalene-2-aminium chloride] | more remarkable effect | A | particularly remarkable effects | – | ≤ 900 | – | – |
| N[C@@H](Cc1ccc(B(O)O)cc1)C(=O)O [L-[10B]BPA, L-boronophenylalanine, reference compound] | – | – | – | – | – | about No BPA Hot control | no BNCT effect was obtained |
